Type in all cases: cell-based
The subject of series [1] is Raji. Nature of the series: Inhibition of TPA-induced EBV-early antigen activation in human Raji cells at 1000 molar ratio after 48 hrs relative to TPA. Also on record: scale not given: the % may be the effect or the level left. Particulars: human gammaherpesvirus 4.
The test system of series [2] is Raji. Put plainly: Inhibition of TPA-induced EBV-early antigen activation in human Raji cells at 100 molar ratio after 48 hrs relative to TPA. Also on record: scale not given: the % may be the effect or the level left. The note with it: human gammaherpesvirus 4.
The nature of series [3]: Cytotoxicity against human Raji cells assessed as cell viability at 1000 molar ratio after 48 hrs by trypan blue assay. Particulars: read-out: Activity.
In series [4] the test system is Raji. Nature of the series: Inhibition of TPA-induced EBV-early antigen activation in human Raji cells at 500 molar ratio after 48 hrs relative to TPA. Also on record: scale not given: the % may be the effect or the level left. The note with it: human gammaherpesvirus 4.
The test system of series [5] is Raji. Put plainly: Inhibition of TPA-induced EBV-early antigen activation in human Raji cells at 10 molar ratio after 48 hrs relative to TPA. Also on record: scale not given: the % may be the effect or the level left. Particulars: human gammaherpesvirus 4.

Regarding `CC(C)=CCC/C(C)=C/CC/C(C)=C/CC/C=C(\C)CC[C@@H]1C(C)=CC[C@H](O)C1(C)C` [CAMELLIOL C], the Activity in series [1] is 20.1%; in series [2], 86.3%; in series [4], 51.5%; in series [5] it was 100%. Further, the viability at 48 h, 1000 molar ratio in series [3] was 70%.

Take `CC(C)=CCC[C@]1(C)CC[C@]2(C)C3=CC[C@H]4C(C)(C)[C@@H](O)CC[C@]4(C)[C@H]3CC[C@@]2(C)C1`: the Activity amounted to 2.2% in series [1], 79.4% in series [2], 33.8% in series [4] and 97.2% in series [5]. For the same compound, the viability at 48 h, 1000 molar ratio in series [3] is 70%.

As to `CC(C)=CCC[C@@H](C)[C@@H]1CC[C@]2(C)C3=CC[C@H]4C(C)(C)[C@@H](O)CC[C@]4(C)C3=CC[C@@]12C` [ANTIQUOL C], the Activity turned out to be 0% in series [1], 75% in series [2], 28.2% in series [4] and 92.8% in series [5]. Moreover, the viability at 48 h, 1000 molar ratio in series [3] was determined as 70%.

Take `CC1=C(/C=C/C(C)=C/C=C/C(C)=C/C=C/C=C(C)/C=C/C=C(C)/C=C/C2=C(C)CCCC2(C)C)C(C)(C)CCC1`: the Activity in series [1] amounted to 8.6%; in series [5], 100%.

On to `CC(C)=CCC[C@@H](C)[C@@H]1CC[C@]2(C)C3=C(CC[C@@]12C)[C@@]1(C)CC[C@H](O)C(C)(C)[C@@H]1CC3` [EUPHOL], for which the Activity was found to be 0% in series [1], 75.7% in series [2], 29.8% in series [4] and 93.5% in series [5]. In series [3], the viability at 48 h, 1000 molar ratio was 70%.

On to `C=C(CC[C@H](C)[C@@H]1CC[C@]2(C)C3=C(CC[C@@]12C)[C@@]1(C)CC[C@H](O)C(C)(C)[C@@H]1CC3)C(C)C` [EUPHORBOL], for which the Activity worked out at 0% in series [1], 77.9% in series [2], 32.6% in series [4] and 95.8% in series [5]. Also, the viability at 48 h, 1000 molar ratio in series [3] was 70%.

With `CC(C)=CCC[C@@H](C)[C@@H]1CC[C@]2(C)[C@H]3CCC(=C(C)C)[C@@H](CCCO)[C@]3(C)CC[C@@]12C` [ISOHELIANOL], the Activity in series [1] came out at 0%; in series [2] it was 72.4%; in series [4], 25.8%; in series [5], 95.7%. Moreover, in series [3], the viability at 48 h, 1000 molar ratio amounted to 70%.

The values are drawn from ChEMBL document CHEMBL1159314, “Eupha-7,9(11),24-trien-3beta-ol ("antiquol C") and other triterpenes from Euphorbia antiquorum latex and their inhibitory effects on Epstein-Barr virus activation” (J Nat Prod, 2002).
